Test results reported in US11925645B2, “Enhanced caffeinated beverage composition” (Ortho-Nutra, LLC, priority 2013, dated 2024).
Read-outs that look alike come from different tables or passages of the source.

How the values were obtained:
[1] = Theacrine-caffeine interaction study: single oral dose plasma pharmacokinetics (LC-MS/MS, noncompartmental); type: in vivo, human
Excerpt: Theacrine pharmacokinetics in humans has not been systematically characterized. Therefore, one purpose of this study, among others, was to determine theacrine pharmacokinetics and dose-linearity following oral administration in humans.
Eight healthy nonsmokers, including 4 men and 4 women, were recruited for the experiment.
(§1) Study Design and Procedures. […] Theacrine, administered as iTeaCrine.®, was provided by Compound Solutions (Carlsbad, Calif). […] Treatment sequence was randomized using a 4×4 Latin square. There was an approximate 1-week washout period between treatments for all subjects.
(§2) Test Visit Procedures. […] A catheter was inserted into the forearm vein for blood sampling. Duplicate measurements of resting heart rate and blood pressure were taken pre-dose and prior to each timed blood sample. In addition, respiratory rate was counted in one minute and body temperature was measured using an ear scanning thermometer (dual readings taken at each time).
All subjects were instructed to consume their usual diet throughout the study period, with the exception of the actual days of testing. During the two days prior to each test day, subjects recorded all food and drink consumed and attempted to mimic this intake for the two-day period prior to subsequent visits. Diet records were analyzed using nutrient analysis software (Food Processor SQL, version 9.9; ESHA Research, Salem, Oreg.). For the actual test days, standardized meals (meal replacement food bars [Clif “Builder's 20 g Protein Bar”] and ready-to-drink shakes [Orgain Organic Nutrition™]) were provided to the subjects after sample collection at hour 2 and hour 6 (one shake and one-half bar at each time). Subjects were also provided with adequate meal replacement bars and shakes to consume following the 8 hour sample collection. (during their time outside the lab). Each bar contained 280 calories, 10 grams of fat, 29 grams of carbohydrate, and 20 grams of protein. Each shake contained 250 calories, 7 grams of fat, 32 grams of carbohydrate, and 16 grams of protein. No food other than what was provided to the subjects was allowed during each study day, including both time spent in the lab and outside the lab. […] The subjects returned the following morning for the 24 hour blood collection, again in a 10 hour fasted state. The same volume of meal replacement bars or shakes was consumed by each subject during each visit (both in lab and outside lab).
Pharmacokinetic Study. Plasma concentration-time data were evaluated using noncompartmental methods in Phoenix WinNonlin (version 7.0; Pharsight Corporation, Mountain View, Calif) with adjustment for lag time after oral administration. The maximum concentration (Cmax), lag time (talag), and time of maximum concentration (tmax) were determined from the plasma concentration versus time data. The area under the plasma concentration-time curve from time 0 to infinity (was calculated using the trapezoidal rule extrapolated to time infinity). […] The oral clearance (CL/F) was calculated by dividing the oral dose by AUC0-∞. The apparent volume of distribution during the terminal elimination phase (Vz/F) was calculated by dividing CL/F by k. […]

[2] = Fourteen day study of repetitive dosing of theacrine and caffeine: psychometric indices; type: in vivo, human
[3] = Single dose theacrine, caffeine or combination: subjective feelings on 10 cm visual analog scale; type: in vivo, human
Method: Subjects rated their subjective feelings using a 10 cm visual analog scale at 30 minutes, 1, 2, 3, 4, and 5 hours post ingestion and performed the trail making test (TMT) of cognitive performance at baseline and at hours 2 and 4 post ingestion.

[4] = Theacrine-caffeine interaction study: heart rate, blood pressure, rate pressure product, tolerability; details: at the doses tested, administered alone or in combination
Excerpt: as §1, §2
Differences between treatment group values were determined for systolic blood pressure (SBP), diastolic blood pressure (DBP), rate pressure product, and heart rate. Parametric data were analyzed by paired Student's t tests of mean differences in values between treatment groups. Statistical significance was defined a priori as a 2-sided or <0.05.

[5] = both sexes, human, in vivo, 150 mg
[6] = from baseline to 2 hours post-ingestion

SMILES: Cn1c(=O)c2c(ncn2C)n(C)c1=O [Caffeine, caffeine, reference compound]
- MRT [1, 5]: 8.4 ± 4.3 h
- half-life [1, 5]: 6.2 ± 3.8 h
- Vd/F ([1]; both sexes, human, in vivo, 150 mg, Vd/F): 33.5 ± 13.7 L
- dose-adjusted Cmax ([1]; both sexes, human, in vivo, po, 150 mg): 33.4 ± 9.5 ng/mL/mg
- caffeine pharmacokinetics following caffeine alone or caffeine plus theacrine co-ingestion ([1]; caffeine 150 mg vs theacrine 125 mg + caffeine 150 mg): similar
- AUC ([1]; human, in vivo, 150 mg): 262.0 ± 74.1 ng·h/mL/mg
- CL/F ([1]; human, in vivo, 150 mg): 4.1 ± 1.1 L/h
- anxiety [2]: increased anxiety scores
- psychometric indices of energy, focus, concentration, motivation and mood [2]: decreasing levels of energy, focus and concentration by Day 5
- self-reported motivation to exercise ([3]; caffeine 150 mg, 125 mg theacrine and 150 mg caffeine): significantly increased
- motivation to exercise [3, 6]: significantly increased
- sense of energy [3, 6]: significantly increased
- subjective focus [3, 6]: significant increase
- effect on baseline hemodynamic parameters, e.g. heart rate and blood pressure [4]: no effect

SMILES: Cn1c(=O)[nH]c2ncn(C)c2c1=O [Paraxanthine, paraxanthine]
- Tmax ([1]; both sexes, human, plasma, oral, 150 mg): 5 h
- dose-adjusted Cmax ([1]; both sexes, human, plasma, oral, 150 mg, paraxanthine in plasma, Condition 3: Caffeine 150 mg, dose-adjusted, mean ± SD): 7.3 ± 1.5 ng/mL/mg
- MRT ([1]; both sexes, human, plasma, oral, 150 mg, read-out: MRT): 19.1 ± 18.6 h
- half-life ([1]; both sexes, human, plasma, oral, 150 mg, read-out: t1/2 (converted)): 12.5 ± 12.7 h
- dose-adjusted Cmax ([1]; both sexes, human, plasma, oral, paraxanthine in plasma, Condition 4: Theacrine 125 mg + Caffeine 150 mg, dose-adjusted, mean ± SD): 8.4 ± 3.5 ng/mL/mg
- AUC ([1]; paraxanthine in plasma, Condition 3: Caffeine 150 mg, dose-adjusted, mean ± SD): 174 ± 152 ng·h/mL/mg
- AUC ([1]; paraxanthine in plasma, Condition 4: Theacrine 125 mg + Caffeine 150 mg, dose-adjusted, mean ± SD): 209 ± 202 ng·h/mL/mg
